# Assay results reported in US20240424131A1, “TARGETING NANOPARTICLES FOR THERAPY” (University of Pittsburgh - Of the Commonwealth System of …, priority 2021, published 2024).
# Test system: CT26 cells
# Assay: Transwell co-culture transcytosis, HUVECs and CT26 cells
# Assay type: cell-based
# Settings: NPs applied to HUVECs in upper chamber
compound,measurement,value
O=C(N/N=C/c1ccc(O)c(O)c1)c1cc2ccccc2cc1O [dynasore],transfection of CT26 cells by Cy5.5-siRNA NPs in presence of endocytosis inhibitor,significantly inhibited
